From patent US8372383B2, “Agent for inducing hair growth containing extracts of saw palmetto and swertia” (Medidermis Ltd, priority 1999, dated 2013)

Key:
hair loss [1] = conditions: after at least one-year daily uptake; 39% hair growth in control group; cited from earlier work
Mice (males, C3H type) = experiment: Hair growth model in mice in the resting phase of the hair cycle (weight of hair after 18 days of topical application); assay type: in vivo
From the text: Data was objectively assessed by the experiments given hereafter in an already established hair growth model in mice [Inaoka Y, et al. 1994, 42:530-3.], employing treatment versus controls. As a positive control, minoxidil 5% was used. […] The present invention thus fulfills the need for a natural combination of plant extracts and provides the advantages of unanimous use and excellent efficacy. In mice, the hair growth and effluvium are a continuous cyclic process. […] Therefore, any hair growth during this period is non-physiologic and induced by external agents. […] Any research related to this model should employ minoxidil as the “golden standard” and as an essential positive control. Mice (males, C3H type), which were in the resting phase in their hair cycle, i.e. at 7 weeks of age, were employed in these experiments. The skin of the back of the mice was subjected to a complete hair cut by an electric razor, with areas of approximately 2.5×4 cm. Different solutions, as will be further described, (100 μL/day) were applied with a syringe 6 times a week for 18 days, and the skin was further massaged. At the end of the experiment, the animals were sacrificed and the skin of the back was excised. The excised skin was fixed on frame consisting of a metal disc with a radius of 0.9 cm. Hairs were cut by a scalpel, collected and weighted. […] Data was calculated by SigmaStat version 2.0, Jandel.

hair loss [2] = conditions: at the more effective higher concentrations; cited from earlier work

Structure (SMILES)	success (hair growth) (hair loss [1])	Weight Of Hair (Mice (males, C3H type); C3H male mice, 7 weeks old, 100 μL/day topically 6 times a week for 18 days, hair from excised back skin, disc of radius 0.9 cm, control (placebo) 2.52 mg)	increase of hair weight as compared to control mice (Mice (males, C3H type); C3H mice, topical, 18 days, versus placebo-treated control)	side effects (hair loss [2])
CC(C)(C)NC(=O)[C@H]1CC[C@H]2[C@@H]3CC[C@H]4NC(=O)C=C[C@]4(C)[C@H]3CC[C@]12C [Finasteride]	60%			
Nc1cc(N2CCCCC2)nc(N)[n+]1[O-] [Minoxidil 5.0%, minoxidil]		4.07 mg	about 65%	may cause hypotension or hypertrichosis
